Laboratory results from ChEMBL document CHEMBL3991601, “The target landscape of clinical kinase drugs” (Science, 2017).
Active and inactive are the calls of the source. Cut-off read from the data, not from the text of the source, for most assays here: actives have a measured Kd and inactives only a lower limit.

Tests used:
[1] = target: Cyclin-dependent kinase 7 (Homo sapiens, UniProt P50613)
[2] = target: T1, ATP-dependent RNA helicase DDX1 (Homo sapiens, UniProt Q92499)
T1 sequence (Q92499 whole entry): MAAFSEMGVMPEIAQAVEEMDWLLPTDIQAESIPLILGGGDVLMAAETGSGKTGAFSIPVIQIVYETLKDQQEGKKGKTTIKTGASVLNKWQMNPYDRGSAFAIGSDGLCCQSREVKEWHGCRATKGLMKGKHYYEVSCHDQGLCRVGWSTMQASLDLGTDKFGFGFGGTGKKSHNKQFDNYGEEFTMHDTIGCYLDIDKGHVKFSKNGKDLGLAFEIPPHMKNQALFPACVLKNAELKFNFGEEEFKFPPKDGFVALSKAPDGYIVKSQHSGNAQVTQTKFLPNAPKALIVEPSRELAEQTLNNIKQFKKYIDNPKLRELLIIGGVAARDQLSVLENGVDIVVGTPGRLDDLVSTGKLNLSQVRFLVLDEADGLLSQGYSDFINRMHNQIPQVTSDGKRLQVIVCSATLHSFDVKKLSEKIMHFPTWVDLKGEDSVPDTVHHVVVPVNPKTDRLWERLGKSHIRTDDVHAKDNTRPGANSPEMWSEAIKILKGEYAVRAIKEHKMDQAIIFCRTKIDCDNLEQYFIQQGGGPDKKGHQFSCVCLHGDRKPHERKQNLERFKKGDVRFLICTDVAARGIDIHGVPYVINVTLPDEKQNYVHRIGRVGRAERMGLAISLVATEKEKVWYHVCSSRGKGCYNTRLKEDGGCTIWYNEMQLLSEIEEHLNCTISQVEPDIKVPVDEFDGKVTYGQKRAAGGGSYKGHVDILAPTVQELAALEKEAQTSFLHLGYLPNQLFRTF

Ephrin type-A receptor 4 = Ephrin type-A receptor 4 (Homo sapiens, UniProt P54764)
Scaffold protein ILK = target: T2, Scaffold protein ILK (Homo sapiens, UniProt Q13418)
T2 sequence (Q13418 whole entry): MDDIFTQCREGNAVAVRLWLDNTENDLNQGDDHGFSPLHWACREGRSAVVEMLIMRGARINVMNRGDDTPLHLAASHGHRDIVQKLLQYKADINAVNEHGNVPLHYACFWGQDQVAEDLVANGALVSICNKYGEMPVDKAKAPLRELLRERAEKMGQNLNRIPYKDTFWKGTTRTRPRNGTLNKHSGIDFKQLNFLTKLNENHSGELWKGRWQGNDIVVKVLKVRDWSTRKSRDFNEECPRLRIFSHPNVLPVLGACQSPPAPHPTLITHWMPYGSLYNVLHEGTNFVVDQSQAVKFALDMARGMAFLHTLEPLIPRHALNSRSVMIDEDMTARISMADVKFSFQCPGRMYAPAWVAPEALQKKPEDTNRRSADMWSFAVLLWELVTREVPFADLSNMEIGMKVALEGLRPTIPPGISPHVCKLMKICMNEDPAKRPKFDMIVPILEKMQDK

[3] = target: T3, Interleukin-1 receptor-associated kinase 4 (Homo sapiens, UniProt Q9NWZ3)
T3 sequence (Q9NWZ3 whole entry): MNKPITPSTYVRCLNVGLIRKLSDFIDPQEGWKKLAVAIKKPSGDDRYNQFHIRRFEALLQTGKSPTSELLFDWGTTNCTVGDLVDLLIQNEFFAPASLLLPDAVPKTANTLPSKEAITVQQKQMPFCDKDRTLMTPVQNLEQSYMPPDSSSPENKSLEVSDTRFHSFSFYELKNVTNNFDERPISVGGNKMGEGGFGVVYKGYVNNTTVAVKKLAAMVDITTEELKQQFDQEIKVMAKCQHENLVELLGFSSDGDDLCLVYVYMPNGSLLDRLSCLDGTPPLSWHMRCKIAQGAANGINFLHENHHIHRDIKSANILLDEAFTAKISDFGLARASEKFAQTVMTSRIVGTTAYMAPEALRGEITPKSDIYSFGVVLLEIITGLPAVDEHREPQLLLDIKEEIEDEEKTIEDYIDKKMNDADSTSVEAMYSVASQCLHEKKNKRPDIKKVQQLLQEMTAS

[4] = target: T4, Serine/threonine-protein kinase Nek3 (Homo sapiens, UniProt P51956)
T4 sequence (P51956 whole entry): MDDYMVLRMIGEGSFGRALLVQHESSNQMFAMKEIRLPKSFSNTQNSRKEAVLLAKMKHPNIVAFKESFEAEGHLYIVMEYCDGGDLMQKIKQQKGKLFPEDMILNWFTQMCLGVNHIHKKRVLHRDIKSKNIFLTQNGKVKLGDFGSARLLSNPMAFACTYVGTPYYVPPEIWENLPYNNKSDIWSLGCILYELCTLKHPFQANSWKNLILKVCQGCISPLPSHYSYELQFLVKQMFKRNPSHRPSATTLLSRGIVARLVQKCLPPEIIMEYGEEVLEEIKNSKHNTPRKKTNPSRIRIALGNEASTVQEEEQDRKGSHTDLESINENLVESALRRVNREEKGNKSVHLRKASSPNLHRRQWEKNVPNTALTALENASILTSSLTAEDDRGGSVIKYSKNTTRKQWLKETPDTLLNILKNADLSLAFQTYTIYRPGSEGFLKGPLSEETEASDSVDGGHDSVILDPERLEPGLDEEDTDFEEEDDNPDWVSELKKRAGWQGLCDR

Pyridoxal kinase = target: T5, Pyridoxal kinase (Homo sapiens, UniProt O00764)
T5 sequence (O00764 whole entry): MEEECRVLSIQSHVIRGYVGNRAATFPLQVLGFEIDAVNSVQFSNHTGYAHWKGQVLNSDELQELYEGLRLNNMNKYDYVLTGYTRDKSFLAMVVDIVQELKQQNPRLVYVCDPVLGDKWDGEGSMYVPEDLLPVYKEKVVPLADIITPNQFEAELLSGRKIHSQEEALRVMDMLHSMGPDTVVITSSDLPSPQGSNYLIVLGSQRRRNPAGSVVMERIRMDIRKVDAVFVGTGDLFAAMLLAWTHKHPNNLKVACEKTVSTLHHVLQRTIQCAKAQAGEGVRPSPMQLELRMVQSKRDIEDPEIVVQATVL

[5] = target: Serine/threonine-protein kinase 10 (Homo sapiens, UniProt O94804)
Wee1-like protein kinase = Wee1-like protein kinase (Homo sapiens, UniProt P30291)
Note: in the data inactive means no Kd found up to 30 µM.

Sequence of Wee1-like protein kinase (P30291 whole entry): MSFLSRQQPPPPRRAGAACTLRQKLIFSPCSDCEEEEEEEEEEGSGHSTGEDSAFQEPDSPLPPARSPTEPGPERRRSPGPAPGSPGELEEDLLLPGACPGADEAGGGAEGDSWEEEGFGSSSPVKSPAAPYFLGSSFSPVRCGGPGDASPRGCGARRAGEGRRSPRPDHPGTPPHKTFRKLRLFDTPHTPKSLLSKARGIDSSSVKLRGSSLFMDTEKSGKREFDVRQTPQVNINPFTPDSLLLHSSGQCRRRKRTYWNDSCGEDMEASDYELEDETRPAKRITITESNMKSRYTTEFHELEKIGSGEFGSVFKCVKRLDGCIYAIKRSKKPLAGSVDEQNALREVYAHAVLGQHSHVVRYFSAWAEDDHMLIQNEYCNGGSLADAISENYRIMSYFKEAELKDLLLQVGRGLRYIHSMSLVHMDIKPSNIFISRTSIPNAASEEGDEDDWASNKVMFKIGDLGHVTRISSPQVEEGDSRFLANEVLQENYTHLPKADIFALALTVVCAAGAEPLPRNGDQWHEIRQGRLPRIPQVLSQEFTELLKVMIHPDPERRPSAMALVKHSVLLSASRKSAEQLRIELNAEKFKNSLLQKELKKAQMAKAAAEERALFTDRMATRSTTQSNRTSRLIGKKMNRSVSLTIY
Sequence of Ephrin type-A receptor 4 (P54764 whole entry): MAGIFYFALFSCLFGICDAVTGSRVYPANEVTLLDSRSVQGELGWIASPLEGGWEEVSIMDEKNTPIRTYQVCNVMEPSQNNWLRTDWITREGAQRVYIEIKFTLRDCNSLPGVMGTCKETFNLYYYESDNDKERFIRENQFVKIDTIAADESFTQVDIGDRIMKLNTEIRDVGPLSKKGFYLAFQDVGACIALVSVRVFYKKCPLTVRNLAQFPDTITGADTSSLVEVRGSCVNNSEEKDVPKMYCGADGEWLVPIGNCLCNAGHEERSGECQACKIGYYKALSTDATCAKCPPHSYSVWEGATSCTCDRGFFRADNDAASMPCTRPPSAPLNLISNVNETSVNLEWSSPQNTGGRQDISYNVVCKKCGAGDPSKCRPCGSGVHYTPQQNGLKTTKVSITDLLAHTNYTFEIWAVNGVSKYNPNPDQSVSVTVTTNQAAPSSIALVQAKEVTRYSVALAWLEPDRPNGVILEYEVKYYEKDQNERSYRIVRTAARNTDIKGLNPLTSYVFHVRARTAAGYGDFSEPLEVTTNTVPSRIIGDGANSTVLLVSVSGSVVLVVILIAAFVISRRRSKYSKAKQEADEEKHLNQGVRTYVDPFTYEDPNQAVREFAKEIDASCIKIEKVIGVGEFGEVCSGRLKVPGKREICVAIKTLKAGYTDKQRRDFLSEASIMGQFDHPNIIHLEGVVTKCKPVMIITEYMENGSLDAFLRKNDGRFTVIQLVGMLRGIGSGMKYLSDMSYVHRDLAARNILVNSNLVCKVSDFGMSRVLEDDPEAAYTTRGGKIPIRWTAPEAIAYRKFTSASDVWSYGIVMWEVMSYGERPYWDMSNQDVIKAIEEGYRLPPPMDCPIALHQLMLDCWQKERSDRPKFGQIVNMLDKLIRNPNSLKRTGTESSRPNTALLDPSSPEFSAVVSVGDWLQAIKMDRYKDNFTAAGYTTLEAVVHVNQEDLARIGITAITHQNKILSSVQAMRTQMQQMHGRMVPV
Sequence of Serine/threonine-protein kinase 10 (O94804 whole entry): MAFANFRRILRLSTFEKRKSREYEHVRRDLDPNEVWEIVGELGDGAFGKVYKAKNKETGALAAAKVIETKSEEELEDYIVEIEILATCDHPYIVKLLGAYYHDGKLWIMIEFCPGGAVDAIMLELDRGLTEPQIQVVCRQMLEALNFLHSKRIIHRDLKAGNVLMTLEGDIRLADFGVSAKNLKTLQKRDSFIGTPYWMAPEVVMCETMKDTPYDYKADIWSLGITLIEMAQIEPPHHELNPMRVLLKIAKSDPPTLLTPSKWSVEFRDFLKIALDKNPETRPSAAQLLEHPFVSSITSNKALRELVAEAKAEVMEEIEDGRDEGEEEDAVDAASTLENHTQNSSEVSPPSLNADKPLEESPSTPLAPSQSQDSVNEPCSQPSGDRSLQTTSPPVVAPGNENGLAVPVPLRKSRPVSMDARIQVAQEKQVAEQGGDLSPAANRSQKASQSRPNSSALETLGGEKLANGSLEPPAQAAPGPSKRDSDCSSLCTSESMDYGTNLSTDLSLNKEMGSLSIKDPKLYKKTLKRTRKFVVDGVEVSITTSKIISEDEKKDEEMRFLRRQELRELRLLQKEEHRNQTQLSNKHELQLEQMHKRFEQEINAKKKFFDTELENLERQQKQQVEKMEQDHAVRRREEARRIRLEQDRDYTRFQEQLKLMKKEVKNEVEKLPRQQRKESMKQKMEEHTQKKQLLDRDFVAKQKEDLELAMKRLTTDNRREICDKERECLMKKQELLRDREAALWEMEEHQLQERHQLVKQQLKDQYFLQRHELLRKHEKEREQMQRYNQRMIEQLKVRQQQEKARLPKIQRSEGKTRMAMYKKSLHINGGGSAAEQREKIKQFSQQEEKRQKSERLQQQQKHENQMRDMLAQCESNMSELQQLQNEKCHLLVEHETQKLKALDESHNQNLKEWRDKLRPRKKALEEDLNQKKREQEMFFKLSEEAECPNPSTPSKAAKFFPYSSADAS
Sequence of Cyclin-dependent kinase 7 (P50613 whole entry): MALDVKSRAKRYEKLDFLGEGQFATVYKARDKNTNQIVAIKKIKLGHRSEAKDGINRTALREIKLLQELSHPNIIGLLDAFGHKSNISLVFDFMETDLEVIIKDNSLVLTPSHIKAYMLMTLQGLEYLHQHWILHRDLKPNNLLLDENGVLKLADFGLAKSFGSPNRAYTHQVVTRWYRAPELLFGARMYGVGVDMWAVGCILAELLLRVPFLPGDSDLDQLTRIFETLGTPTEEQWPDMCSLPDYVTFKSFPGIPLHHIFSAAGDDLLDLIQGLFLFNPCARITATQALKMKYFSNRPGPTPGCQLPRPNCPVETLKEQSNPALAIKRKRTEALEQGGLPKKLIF

Structure (SMILES) | Kd [1] | Kd [2] | Kd (Ephrin type-A receptor 4) | Kd (Scaffold protein ILK) | Kd [3] | Kd [4] | Kd (Pyridoxal kinase) | Kd [5] | Kd (Wee1-like protein kinase)
CC[C@H](Nc1ncnc2[nH]cnc12)c1nc2cccc(F)c2c(=O)n1-c1ccccc1 [IDELALISIB] | > 30 µM (inactive) | > 30 µM (inactive) | > 30 µM (inactive) | > 30 µM (inactive) | > 30 µM (inactive) | > 30 µM (inactive) | > 30 µM (inactive) | > 30 µM (inactive) | > 30 µM (inactive)
O=C1NC(=O)/C(=C/c2ccc3nccc(-c4ccncc4)c3c2)S1 [GSK-1059615] | > 30 µM (inactive) | > 30 µM (inactive) | > 30 µM (inactive) | > 30 µM (inactive) | > 30 µM (inactive) | > 30 µM (inactive) | > 30 µM (inactive) | 0.317 µM (active) | > 30 µM (inactive)
CNC(=O)c1cc(Oc2ccc(NC(=O)Nc3ccc(Cl)c(C(F)(F)F)c3)c(F)c2)ccn1 [REGORAFENIB] | > 30 µM (inactive) | > 30 µM (inactive) | > 30 µM (inactive) | > 30 µM (inactive) | > 30 µM (inactive) | > 30 µM (inactive) | > 30 µM (inactive) | > 30 µM (inactive) | > 30 µM (inactive)
CN1CCC(CNc2ccc3ncc(-c4cccc(OC(F)(F)F)c4)n3n2)CC1 [SGI-1776] | > 30 µM (inactive) | > 30 µM (inactive) | > 30 µM (inactive) | > 30 µM (inactive) | > 30 µM (inactive) | > 30 µM (inactive) | > 30 µM (inactive) | 2.16 µM (active) | > 30 µM (inactive)
CC(C)Nc1cc(-c2c[nH]c(C(=O)N[C@H](CO)c3cccc(Cl)c3)c2)c(Cl)cn1 [ULIXERTINIB] | > 30 µM (inactive) | > 30 µM (inactive) | > 30 µM (inactive) | > 30 µM (inactive) | > 30 µM (inactive) | > 30 µM (inactive) | > 30 µM (inactive) | > 30 µM (inactive) | > 30 µM (inactive)
CC[C@@H]1C(=O)N(C)c2cnc(Nc3ccc(C(=O)N[C@H]4CC[C@H](N5CCN(CC6CC6)CC5)CC4)cc3OC)nc2N1C(C)C [VOLASERTIB] | > 30 µM (inactive) | > 30 µM (inactive) | > 30 µM (inactive) | > 30 µM (inactive) | > 30 µM (inactive) | 2.96 µM (active) | 0.286 µM (active) | > 30 µM (inactive) | > 30 µM (inactive)
CN1CC[C@@H](c2c(O)cc(O)c3c(=O)cc(-c4ccccc4Cl)oc23)[C@@H]1CO | > 30 µM (inactive) | > 30 µM (inactive) | > 30 µM (inactive) | > 30 µM (inactive) | > 30 µM (inactive) | > 30 µM (inactive) | > 30 µM (inactive) | > 30 µM (inactive) | > 30 µM (inactive)
COc1cc2nccc(Oc3ccc(NC(=O)NC4CC4)c(Cl)c3)c2cc1C(N)=O [LENVATINIB] | > 30 µM (inactive) | > 30 µM (inactive) | > 30 µM (inactive) | > 30 µM (inactive) | > 30 µM (inactive) | > 30 µM (inactive) | > 30 µM (inactive) | 0.793 µM (active) | > 30 µM (inactive)
COC(=O)N[C@@H](C)CNc1nccc(-c2cn(C(C)C)nc2-c2cc(Cl)cc(NS(C)(=O)=O)c2F)n1 [ENCORAFENIB] | > 30 µM (inactive) | > 30 µM (inactive) | > 30 µM (inactive) | > 30 µM (inactive) | > 30 µM (inactive) | > 30 µM (inactive) | > 30 µM (inactive) | > 30 µM (inactive) | > 30 µM (inactive)
COCCNCc1ccc(-c2cc3nccc(Oc4ccc(NC(=S)NC(=O)Cc5ccc(F)cc5)cc4F)c3s2)nc1 [GLESATINIB] | > 30 µM (inactive) | > 30 µM (inactive) | > 30 µM (inactive) | > 30 µM (inactive) | > 30 µM (inactive) | > 30 µM (inactive) | > 30 µM (inactive) | > 30 µM (inactive) | > 30 µM (inactive)
CCS(=O)(=O)N1CC(CC#N)(n2cc(-c3ncnc4[nH]ccc34)cn2)C1 [BARICITINIB] | > 30 µM (inactive) | > 30 µM (inactive) | > 30 µM (inactive) | > 30 µM (inactive) | > 30 µM (inactive) | > 30 µM (inactive) | > 30 µM (inactive) | > 30 µM (inactive) | > 30 µM (inactive)
Cc1c(F)cc(C(=O)NC2CC2)cc1-c1ccc(C(=O)NCC(C)(C)C)cn1 [LOSMAPIMOD] | > 30 µM (inactive) | > 30 µM (inactive) | > 30 µM (inactive) | > 30 µM (inactive) | > 30 µM (inactive) | > 30 µM (inactive) | > 30 µM (inactive) | > 30 µM (inactive) | > 30 µM (inactive)
CO[C@H]1C[C@@H]2CC[C@@H](C)[C@@](O)(O2)C(=O)C(=O)N2CCCC[C@H]2C(=O)O[C@H]([C@H](C)C[C@@H]2CC[C@@H](OCCO)[C@H](OC)C2)CC(=O)[C@H](C)/C=C(\C)[C@@H](O)[C@@H](OC)C(=O)[C@H](C)C[C@H](C)/C=C/C=C/C=C/1C [EVEROLIMUS] | > 30 µM (inactive) | > 30 µM (inactive) | > 30 µM (inactive) | > 30 µM (inactive) | > 30 µM (inactive) | > 30 µM (inactive) | > 30 µM (inactive) | > 30 µM (inactive) | > 30 µM (inactive)
CCN1CCN(Cc2ccc(-c3cc4c(N[C@H](C)c5ccccc5)ncnc4[nH]3)cc2)CC1 [AEE-788] | > 30 µM (inactive) | > 30 µM (inactive) | > 30 µM (inactive) | > 30 µM (inactive) | > 30 µM (inactive) | 38.1 µM (active) | > 30 µM (inactive) | 42.6 µM (active) | 65.2 µM (active)
CC(=O)Nc1cccc(-n2c(=O)n(C3CC3)c(=O)c3c(Nc4ccc(I)cc4F)n(C)c(=O)c(C)c32)c1 [TRAMETINIB] | > 30 µM (inactive) | > 30 µM (inactive) | > 30 µM (inactive) | > 30 µM (inactive) | > 30 µM (inactive) | > 30 µM (inactive) | > 30 µM (inactive) | > 30 µM (inactive) | > 30 µM (inactive)
